{"source": "patent US9409908B2", "about": "(priority 2012, dated 2016)", "key": {"[1]": {"biological_target": "purified human Factor XIa (Homo sapiens (Human), UniProt P03951)", "sequence (P03951 whole entry, looked up)": "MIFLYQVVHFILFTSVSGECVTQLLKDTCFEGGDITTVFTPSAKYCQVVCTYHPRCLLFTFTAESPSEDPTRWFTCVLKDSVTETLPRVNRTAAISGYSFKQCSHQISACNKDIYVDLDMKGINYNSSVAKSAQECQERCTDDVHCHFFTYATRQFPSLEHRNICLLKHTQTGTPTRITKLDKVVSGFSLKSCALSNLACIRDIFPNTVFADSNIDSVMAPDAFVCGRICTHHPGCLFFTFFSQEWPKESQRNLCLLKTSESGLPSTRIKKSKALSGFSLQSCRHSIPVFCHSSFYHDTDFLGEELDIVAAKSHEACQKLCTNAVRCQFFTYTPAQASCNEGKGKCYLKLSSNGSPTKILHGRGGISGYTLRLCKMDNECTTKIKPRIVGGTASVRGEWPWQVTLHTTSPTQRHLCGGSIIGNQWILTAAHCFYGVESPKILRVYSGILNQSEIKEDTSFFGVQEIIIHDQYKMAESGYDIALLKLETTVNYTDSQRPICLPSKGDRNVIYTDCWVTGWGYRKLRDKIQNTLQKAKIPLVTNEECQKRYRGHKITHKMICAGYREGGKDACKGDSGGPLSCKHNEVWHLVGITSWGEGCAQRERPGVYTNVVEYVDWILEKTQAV", "sequence (P03951 whole entry partner, looked up)": "as the sequence (P03951 whole entry, looked up) above", "assay": "biochemical", "assay_type": "biochemical", "conditions": "read-out: Factor XIa Ki"}, "[2]": {"biological_target": "purified human plasma kallikrein (Homo sapiens (Human), UniProt P03952)", "sequence (P03952 whole entry, looked up)": "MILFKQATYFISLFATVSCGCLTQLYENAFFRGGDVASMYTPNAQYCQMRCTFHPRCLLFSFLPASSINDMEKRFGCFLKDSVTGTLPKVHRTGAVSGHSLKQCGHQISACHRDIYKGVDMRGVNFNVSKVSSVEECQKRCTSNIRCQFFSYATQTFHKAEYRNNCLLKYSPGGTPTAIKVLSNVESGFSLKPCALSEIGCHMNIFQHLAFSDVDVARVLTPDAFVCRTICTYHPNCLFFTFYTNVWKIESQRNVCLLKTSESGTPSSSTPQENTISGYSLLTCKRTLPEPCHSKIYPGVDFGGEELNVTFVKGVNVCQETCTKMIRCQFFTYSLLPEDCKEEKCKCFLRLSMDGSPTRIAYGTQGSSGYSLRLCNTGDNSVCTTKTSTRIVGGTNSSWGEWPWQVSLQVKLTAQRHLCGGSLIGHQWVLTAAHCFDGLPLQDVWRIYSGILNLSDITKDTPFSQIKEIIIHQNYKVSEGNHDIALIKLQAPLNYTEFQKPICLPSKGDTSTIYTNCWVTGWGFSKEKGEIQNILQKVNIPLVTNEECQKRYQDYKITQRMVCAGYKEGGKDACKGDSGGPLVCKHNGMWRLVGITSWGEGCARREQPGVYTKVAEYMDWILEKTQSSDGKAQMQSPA", "sequence (P03952 whole entry partner, looked up)": "as the sequence (P03952 whole entry, looked up) above", "assay": "biochemical", "assay_type": "biochemical", "conditions": "read-out: Plasma Kallikrein Ki"}}, "note": "Structures can show the parent of a compound that is named as a salt."}
{"smiles": "Cc1cc2cc3c(cc2[nH]1)NC(=O)[C@H](C)CCC[C@H](N1CCC(c2c(F)ccc(Cl)c2F)=CC1=O)c1cc-3ccn1", "note": "[Example 85, (13R,17S)-17-[4-(3-Chloro-2,6-difluorophenyl)-6-oxo-1,2,3,6-tetrahydropyridin-1-yl]-6,13-dimethyl-7,11,19-triazatetracyclo[16.3.1.0^2,10.0^4,8]docosa-1(22),2,4(8),5,9,18,20-heptaen-12-one, TFA salt]", "values": [{"measurement": "Ki", "setting": "[1]", "result": 9.17, "unit": "nM"}, {"measurement": "Ki", "setting": "[2]", "result": 47, "unit": "nM"}]}
{"smiles": "C[C@@H]1CCC[C@H](N2CCC(c3c(F)ccc(Cl)c3F)=CC2=O)c2cc(ccn2)-c2cc3c(cc2NC1=O)NC(=O)CC3", "note": "[Example 86, (14R,18S)-18-[4-(3-Chloro-2,6-difluorophenyl)-6-oxo-1,2,3,6-tetrahydropyridin-1-yl]-14-methyl-8,12,20-triazatetracyclo[17.3.1.0^2,11.0^4,9]tricosa-1(23),2(11),3,9,19,21-hexaene-7,13-dione, TFA salt]", "values": [{"measurement": "Ki", "setting": "[1]", "result": 0.72, "unit": "nM"}, {"measurement": "Ki", "setting": "[2]", "result": 1, "unit": "nM"}]}
{"smiles": "C[C@@H]1CCC[C@H](N2CCC(c3c(F)ccc(Cl)c3F)=CC2=O)c2cc(ccn2)-c2ccc(Nc3ccccn3)cc2NC1=O", "note": "[Example 88, (10R,14S)-14-[4-(3-Chloro-2,6-difluorophenyl)-6-oxo-1,2,3,6-tetrahydropyridin-1-yl]-10-methyl-5-[(pyridin-2-yl)amino]-8,16-diazatricyclo[13.3.1.0^2,7]nonadeca-1(19),2(7),3,5,15,17-hexaen-9-one, 2TFA salt]", "values": [{"measurement": "Ki", "setting": "[1]", "result": 1.04, "unit": "nM"}, {"measurement": "Ki", "setting": "[2]", "result": 5, "unit": "nM"}]}
{"smiles": "C[C@@H]1CCC[C@H](N2CCC(c3c(F)ccc(Cl)c3F)=CC2=O)c2cc(ccn2)-c2ccc(Nc3ccncc3)cc2NC1=O", "note": "[Example 89, (10R,14S)-14-[4-(3-Chloro-2,6-difluorophenyl)-6-oxo-1,2,3,6-tetrahydropyridin-1-yl]-10-methyl-5-[(pyridin-4-yl)amino]-8,16-diazatricyclo[13.3.1.0^2,7]nonadeca-1(19),2(7),3,5,15,17-hexaen-9-one, 2 TFA salt]", "values": [{"measurement": "Ki", "setting": "[1]", "result": 2.43, "unit": "nM"}, {"measurement": "Ki", "setting": "[2]", "result": 5, "unit": "nM"}]}
{"smiles": "C[C@@H]1CCC[C@H](N2CCC(c3c(F)ccc(Cl)c3F)=CC2=O)c2cc(ccn2)-c2ccc(Nc3ccncn3)cc2NC1=O", "note": "[Example 90, (10R,14S)-14-[4-(3-Chloro-2,6-difluorophenyl)-6-oxo-1,2,3,6-tetrahydropyridin-1-yl]-10-methyl-5-[(pyrimidin-4-yl)amino]-8,16-diazatricyclo[13.3.1.0^2,7]nonadeca-1(19),2(7),3,5,15,17-hexaen-9-one, 2 TFA salt]", "values": [{"measurement": "Ki", "setting": "[1]", "result": 1.81, "unit": "nM"}, {"measurement": "Ki", "setting": "[2]", "result": 4, "unit": "nM"}]}
{"smiles": "C[C@@H]1CCC[C@H](N2CCC(c3c(F)ccc(Cl)c3F)=CC2=O)c2cc(ccn2)-c2ccc(Nc3cnccn3)cc2NC1=O", "note": "[Example 93, (10R,14S)-14-[4-(3-Chloro-2,6-difluorophenyl)-6-oxo-1,2,3,6-tetrahydropyridin-1-yl]-10-methyl-5-[(pyrazin-2-yl)amino]-8,16-diazatricyclo[13.3.1.0^2,7]nonadeca-1(19),2(7),3,5,15,17-hexaen-9-one, 2 TFA salt]", "values": [{"measurement": "Ki", "setting": "[1]", "result": 1.4, "unit": "nM"}, {"measurement": "Ki", "setting": "[2]", "result": 3, "unit": "nM"}]}
{"smiles": "CC(C)[C@@H]1CCC[C@H](N2CCC(c3c(F)ccc(Cl)c3F)=CC2=O)c2cc(ccn2)-c2ccccc2NC1=O", "note": "[Example 95, (10S,14S)-14-[4-(3-chloro-2,6-difluorophenyl)-6-oxo-1,2,3,6-tetrahydropyridin-1-yl]-10-(propan-2-yl)-8,16-diazatricyclo[13.3.1.0^2,7]nonadeca-1(18),2,4,6,15(19),16-hexaen-9-one, TFA salt]", "values": [{"measurement": "Ki", "setting": "[1]", "result": 46.5, "unit": "nM"}, {"measurement": "Ki", "setting": "[2]", "result": 107, "unit": "nM"}]}
{"smiles": "CC(C)[C@H]1CCC[C@H](N2CCC(c3c(F)ccc(Cl)c3F)=CC2=O)c2cc(ccn2)-c2ccccc2NC1=O", "note": "[Example 96, (10R,14S)-14-[4-(3-chloro-2,6-difluorophenyl)-6-oxo-1,2,3,6-tetrahydropyridin-1-yl]-10-(propan-2-yl)-8,16-diazatricyclo[13.3.1.0^2,7]nonadeca-1(18),2,4,6,15(19),16-hexaen-9-one, TFA salt]", "values": [{"measurement": "Ki", "setting": "[1]", "result": "> 422", "unit": "nM"}, {"measurement": "Ki", "setting": "[2]", "result": 1970, "unit": "nM"}]}
{"smiles": "COC(=O)Nc1ccc2c(c1)NC(=O)[C@H](C)CCC[C@H](N1CCC(C3CCCCC3)=CC1=O)c1cc-2ccn1", "note": "[Example 98, Methyl N-[(10R,14S)-14-(4-cyclohexyl-6-oxo-1,2,3,6-tetrahydropyridin-1-yl)-10-methyl-9-oxo-8,16-diazatricyclo[13.3.1.0^2,7]nonadeca-1(19),2,4,6,15,17-hexaen-5-yl]carbamate, TFA salt]", "values": [{"measurement": "Ki", "setting": "[1]", "result": 30.1, "unit": "nM"}, {"measurement": "Ki", "setting": "[2]", "result": 36, "unit": "nM"}]}
{"smiles": "COC(=O)Nc1ccc2c(c1)NC(=O)[C@H](C)CCC[C@H](N1CCC(c3cncc(Cl)c3)=CC1=O)c1cc-2ccn1", "note": "[Example 99, Methyl N-[(10R,14S)-14-[4-(5-chloropyridin-3-yl)-6-oxo-1,2,3,6-tetrahydropyridin-1-yl]-10-methyl-9-oxo-8,16-diazatricyclo[13.3.1.0^2,7]nonadeca-1(19),2,4,6,15,17-hexaen-5-yl]carbamate, his TFA salt]", "values": [{"measurement": "Ki", "setting": "[1]", "result": 126, "unit": "nM"}, {"measurement": "Ki", "setting": "[2]", "result": 2400, "unit": "nM"}]}
{"smiles": "CC1CCC[C@H](N2CCC(c3c(F)ccc(Cl)c3F)=CC2=O)c2cc(ccn2)-c2ccc(C(=O)O)cc2NC1=O", "note": "(stereo partly drawn) [Example 105, (14S)-14-[4-(3-Chloro-2,6-difluorophenyl)-6-oxo-1,2,3,6-tetrahydropyridin-1-yl]-10-methyl-9-oxo-8,16-diazatricyclo[13.3.1.0^2,7]nonadeca-1(18),2,4,6,15(19),16-hexaene-5-carboxylic acid, TFA salt]", "values": [{"measurement": "Ki", "setting": "[1]", "result": "> 342", "unit": "nM"}, {"measurement": "Ki", "setting": "[2]", "result": 3920, "unit": "nM"}]}
{"smiles": "CC1CCC[C@H](N2CCC(c3c(C(F)(F)F)ccc(Cl)c3F)=CC2=O)c2cc(ccn2)-c2ccc(C(=O)O)cc2NC1=O", "note": "(stereo partly drawn) [Example 106, (14S)-14-{4-[3-Chloro-2-fluoro-6-(trifluoromethyl)phenyl]-6-oxo-1,2,3,6-tetrahydropyridin-1-yl}-10-methyl-9-oxo-8,16-diazatricyclo[13.3.1.0^2,7]nonadeca-1(18),2,4,6,15(19),16-hexaene-5-carboxylic acid, TFA salt]", "values": [{"measurement": "Ki", "setting": "[1]", "result": "> 342", "unit": "nM"}, {"measurement": "Ki", "setting": "[2]", "result": 890, "unit": "nM"}]}
{"smiles": "CC1CCC[C@H](N2CCC(c3c(F)ccc(Cl)c3F)=CC2=O)c2cc(ccn2)-c2ccc(C(N)=O)cc2NC1=O", "note": "(stereo partly drawn) [Example 107, (14S)-14-[4-(3-Chloro-2,6-difluorophenyl)-6-oxo-1,2,3,6-tetrahydropyridin-1-yl]-10-methyl-9-oxo-8,16-diazatricyclo[13.3.1.0^2,7]nonadeca-1(18),2,4,6,15(19),16-hexaene-5-carboxamide, TFA salt]", "values": [{"measurement": "Ki", "setting": "[1]", "result": 17.4, "unit": "nM"}, {"measurement": "Ki", "setting": "[2]", "result": 88, "unit": "nM"}]}
{"smiles": "CC1CCC[C@H](N2CCC(c3c(C(F)(F)F)ccc(Cl)c3F)=CC2=O)c2cc(ccn2)-c2ccc(C(N)=O)cc2NC1=O", "note": "(stereo partly drawn) [Example 108, (14S)-14-{4-[3-Chloro-2-fluoro-6-(trifluoromethyl)phenyl]-6-oxo-1,2,3,6-tetrahydropyridin-1-yl}-10-methyl-9-oxo-8,16-diazatricyclo[13.3.1.0^2,7]nonadeca-1(18),2,4,6,15(19),16-hexaene-5-carboxamide, TFA salt]", "values": [{"measurement": "Ki", "setting": "[1]", "result": 8.13, "unit": "nM"}, {"measurement": "Ki", "setting": "[2]", "result": 29, "unit": "nM"}]}
{"smiles": "COC(=O)Nc1ccc2c(c1)NC(=O)[C@H](C)CCC[C@H](N1CCC(c3cc(Cl)ccc3C)=CC1=O)c1cc-2ccn1", "note": "[Example 110, Methyl N-[(10R,14S)-14-[4-(5-chloro-2-methylphenyl)-6-oxo-1,2,3,6-tetrahydropyridin-1-yl]-10-methyl-9-oxo-8,16-diazatricyclo[13.3.1.0^2,7]nonadeca-1(18),2,4,6,15(19),16-hexaen-5-yl]carbamate]", "values": [{"measurement": "Ki", "setting": "[1]", "result": 0.62, "unit": "nM"}, {"measurement": "Ki", "setting": "[2]", "result": 3.91, "unit": "nM"}]}
